Residues, ends and D or L forms follow the SMILES beside them. *: point of attachment. X1 = O=C(CCCC(=O)*)OC(Cn1cncn1)(Cn1cncn1)c1ccc(F)cc1F
Key:
MTT cytotoxicity assay = details: human
Description: (§1) The assessment of antifungal potential of synthesized agents was carried out using four reference strains (C. albicans ATCC 10231, C. albicans SC5314, C. glabrata DSM […] and C. krusei DSM […]) and six clinical isolates of fluconazole-resistant C. albicans that were provided by the Hospital of Medical University of Gdansk, Poland. Moreover, four C. albicans isolates, assigned as B3, B4, Gu4 and Gu5, were used for investigation whether the synthesized fluconazole derivatives were effectively removed from the yeast cells by the drug efflux transporters, as in the case of fluconazole. These strains were kindly provided by Prof. Joachim Morschhäuser from University of Würzburg (Würzburg, Germany). Strains Gu4 and B3 were fluconazole-sensitive isolates obtained from early infection episodes, while Gu5 and B4 were the corresponding fluconazole-resistant isolates obtained from later episodes in the same patients treated with fluconazole. The lack of susceptibility of the Gu5 strain to fluconazole was a consequence of overexpression of CDR1/2 genes encoding ABC transporters, whereas the resistance of B4 strain was caused by overexpression of the MDR1 gene encoding a membrane transport protein of the major facilitator superfamily (MFS). All of these Candida spp. strains were maintained on YPD agar plates (1% (w/v) yeast extract, 2% (w/v) peptone, 2% (w/v) glucose, 2% (w/v) agar) at 30 °C for 16–24 h. For all of the assays aimed at assessing the antifungal potential of the synthesized agents, the yeasts were cultivated at 37 °C in RPMI 1640 medium (with L-glutamine, without sodium bicarbonate, Sigma-Aldrich, Darmstadt, Germany)) buffered to a pH of 7.0 with 0.165 M morpholinepropanesulfonic acid (MOPS) buffer (Sigma-Aldrich). In this study, we used the human foreskin fibroblast cell line Hs27 (ATCC CRL 1634TM) and the human endothelial cell line HUVEC (C2519A), purchased from Lonza Group AG, (Basel, Switzerland). The Hs27 cells were maintained in cell media consisting of Dulbecco’s modified Eagles medium (DMEM), (Corning, Arizona, USA) with 10% fetal bovine serum (FBS), (Corning, Port Elizabeth, South Africa), 1% penicillin/streptomycin (Sigma-Aldrich Inc., Darmstadt, Germany), and 1% L-glutamine (Corning, Arizona, USA). The human endothelial cell line was maintained in cell media consisting of Endothelial Cell Growth Medium-2 Single Quots Kit (Lonza, USA). Both cell lines were cultured in an incubator at 37 °C and 5% CO2.
(§2) Hs27 and HUVEC mammalian cell lines were cultured as mentioned above. Once cell lines were about 80% confluent, cells were counted by a hemacytometer (Hausser Scientific, Horsham, PA, USA) and plated in 96-well microtiter plates at concentrations of 4500 cells per well for Hs27 and 2000 cells per well for HUVEC. Cells were allowed to attach overnight. […] The final concentration of DMSO was ensured to be around 1% in all experiments. Cells were incubated with studied compounds for 72 h at 37 °C and 5% CO2. After incubation, 20 µL of MTT solution in PBS (4 mg/mL) was added to all wells and incubated further for 3 h at 37 °C. Formed formazan crystals were dissolved in 150 µL DMSO, and absorbance was measured using an Asys UVM340 multi-well plate reader at λ = 540 nm. Cytotoxicity was determined compared to drug-free control. All experiments were performed in biological triplicates.

[1] = tested on: HUVEC cells (human umbilical venous endothelial primary cells); experiment: MTT cytotoxicity assay; details: HUVEC cells, MTT, 72 h, 37 °C, 100–1.5 μM, biological triplicates
Description: as §1, §2

Candida albicans 247 = experiment: microbe, parasite or virus in culture; details: C. albicans 247 (fluconazole-resistant clinical isolate), RPMI 1640/MOPS pH 7.0, 24 h, 37 °C, triplicate
Procedure, shortened: (§3)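 Values come from modified CLSI M27-A3 broth microdilution at 37 °C for 24 h. Medium was RPMI 1640 with L-glutamine, no bicarbonate, buffered with 0.165 M MOPS to pH 7.0. Final DMSO was about 1%.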

Candida albicans Gu5 = experiment: microbe, parasite or virus in culture; details: C. albicans Gu5 (fluconazole-resistant, CDR1/2 overexpression), RPMI 1640/MOPS pH 7.0, 24 h, 37 °C, triplicate
Procedure, shortened: (§4)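 Yeasts were exposed to compounds in MOPS-buffered RPMI 1640 (pH 7.0) following a modified CLSI M27-A3 protocol and incubated 24 h at 37 °C. Wells were then subcultured onto drug-free YPD agar for a further 24 h to obtain minimum fungicidal concentrations.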

Candida albicans B4 = experiment: microbe, parasite or virus in culture; details: C. albicans B4 (fluconazole-resistant, MDR1 overexpression), RPMI 1640/MOPS pH 7.0, 24 h, 37 °C, triplicate
Procedure, shortened: as §4

Candida albicans 138 = experiment: microbe, parasite or virus in culture; details: C. albicans 138 (fluconazole-resistant clinical isolate), RPMI 1640/MOPS pH 7.0, 24 h, 37 °C, triplicate
Procedure, shortened: as §4

Candida albicans 604 = experiment: microbe, parasite or virus in culture; details: C. albicans 604 (fluconazole-resistant clinical isolate), RPMI 1640/MOPS pH 7.0, 24 h, 37 °C, triplicate
Procedure, shortened: as §3

Candida albicans 48 = experiment: microbe, parasite or virus in culture; details: C. albicans 48 (fluconazole-resistant clinical isolate), RPMI 1640/MOPS pH 7.0, 24 h, 37 °C, triplicate
Procedure, shortened: as §3

Candida albicans 574 = experiment: microbe, parasite or virus in culture; details: C. albicans 574 (fluconazole-resistant clinical isolate), RPMI 1640/MOPS pH 7.0, 24 h, 37 °C, triplicate
Procedure, shortened: as §3

[2] = tested on: Candida albicans ATCC 10231; experiment: microbe, parasite or virus in culture; details: C. albicans ATCC 10231, RPMI 1640/MOPS pH 7.0, 24 h, 37 °C, triplicate
Procedure, shortened: as §4

[3] = at least 50% growth inhibition vs growth control
[4] = lowest concentration with no visible growth

CSCC[C@H](NC(=O)[C@H](C)NC(=O)[C@H](CCCNC(=N)N)NC(=O)[C@H](CCCCN)NC(=O)[C@H](Cc1c[nH]c2ccccc12)NC(=O)[C@H](CCC(N)=O)NC(=O)[C@H](Cc1ccccc1)NC(=O)[C@H](CS)NC(=O)CCCC(=O)OC(Cn1cncn1)(Cn1cncn1)c1ccc(F)cc1F)C(=O)N[C@@H](CCCNC(=N)N)C(=O)N[C@@H](CCCCN)C(=O)N[C@H](C(=O)N[C@@H](CCCNC(=N)N)C(N)=O)C(C)C [FLCpOH-HLopt2-NH2] (X1-CFQWKRAMRKVR-NH2)
125 µM: MIC50 [2, 3]
>250 µM: MIC50 (Candida albicans 247; [3]) | MIC90 (Candida albicans 247; [4]) | MIC50 (Candida albicans Gu5; [3]) | MIC90 (Candida albicans Gu5; [4]) | MIC50 (Candida albicans B4; [3]) | MIC90 (Candida albicans B4; [4]) | MIC50 (Candida albicans 138; [3]) | MIC90 (Candida albicans 138; [4]) | MIC50 (Candida albicans 604; [3]) | MIC90 (Candida albicans 604; [4]) | MIC90 (Candida albicans 48; [4]) | MIC90 (Candida albicans 574; [4])
> 100 µM: IC50 at 72 h (MTT cytotoxicity assay)
250 µM: MIC50 (Candida albicans 48; [3]) | MIC50 (Candida albicans 574; [3]) | MIC90 [2, 4]
>100 µM: In vitro cytotoxicity IC90 ± SEM [1]

— paper PMC9026428, “New Peptide Based Fluconazole Conjugates with Expanded Molecular Targets” (Pharmaceutics, 2022)
